Measurements as given in BindingDB's records for doi:10.1016/S0960-894X(96)00247-8 (1996).

Tests used:
[1] = biological target: Glutamate-cysteine ligase gshA (Escherichia coli) (UniProt P0A6W9); assay: Tested for inhibition of Escherichia coli gamma-glutamylcysteine synthetase at a concentration of 5.1 uM
[2] = biological target: Glutamate-cysteine ligase gshA (Escherichia coli) (UniProt P0A6W9); assay: Tested for inhibition of Escherichia coli gamma-glutamylcysteine synthetase at a concentration of 5.7 uM

Sequence of Glutamate-cysteine ligase gshA (Escherichia coli) (P0A6W9 whole entry, looked up): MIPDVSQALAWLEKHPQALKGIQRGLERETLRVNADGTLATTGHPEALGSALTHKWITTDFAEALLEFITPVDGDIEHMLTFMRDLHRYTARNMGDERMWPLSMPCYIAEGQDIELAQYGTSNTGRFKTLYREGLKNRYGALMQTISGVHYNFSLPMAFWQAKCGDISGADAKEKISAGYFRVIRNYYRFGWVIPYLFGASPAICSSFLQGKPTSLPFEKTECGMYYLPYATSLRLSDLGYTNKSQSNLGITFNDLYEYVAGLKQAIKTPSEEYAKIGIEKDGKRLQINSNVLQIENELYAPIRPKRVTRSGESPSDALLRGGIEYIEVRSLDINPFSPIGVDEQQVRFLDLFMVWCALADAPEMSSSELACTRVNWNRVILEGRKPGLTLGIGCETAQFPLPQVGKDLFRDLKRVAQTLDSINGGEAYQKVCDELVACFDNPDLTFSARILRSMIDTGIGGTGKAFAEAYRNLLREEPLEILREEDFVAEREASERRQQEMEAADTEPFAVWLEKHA

Row | Ki [1] [µM] | Ki [2] [µM] | SMILES
1 | 49.3 | – | CCCCS(=N)(=O)CCC(=N)C(=O)O (configuration not stated)
2 | – | 4.95 | CCC(CP(=O)(O)CC[C@H](N)C(=O)O)C(=O)O (stereo partly drawn) [(2S)-2-ammonio-4-[(2-carboxylatobutyl)phosphinato]butanoate]
